According to patent EP0847397B1, “WATER-SOLUBLE C-RING ANALOGUES OF 20 (S)-CAMPTOTHECIN” (DR. REDDY'S RESEARCH FOUNDATION, priority 1996, dated 1997):

Assays:
[1] = test system: MOLT 4; test: NCI in vitro 60 human tumor cell line assay; format: cell-based; details: MOLT 4, […], 48h, read-out: Total Growth Inhibition (TGI)
Experimental: (§1) Each test compound was screened against a battery of 60 human cell lines obtained from eight organs. In a typical procedure, the cell suspensions that were diluted according to the particular cell type and the expected target cell density (5000-40,000 cells per well based on cell growth characteristics) were added into 96-well microtiter plates. Inoculates were allowed a preincubation period of 24h at 37°C. for stabilization. Dilutions at twice the intended test concentrations were added at time zero in 100-µl aliquots to microtiter plate wells. Usually test compounds were evaluated at five 10-fold dilutions. The highest well concentration used in the test is 10^-4M. The cells are then incubated in the presence of drug (the test compound) for further 48h in 5% CO2 atmosphere and 100% humidity. At the end of this time, the adherent cells are fixed to the plate by means of trichloroacetic acid, and after a number of washes, the cell layer is treated with the protein stain Sulforhodamine B. The optical density which is proportional to protein mass, is then read by automated spectrophotometric plate readers at a wavelength of 515 nm. Readings are transferred to a microcomputer and final reports are generated using especially developed software.

[2] = test system: SF 295; test: NCI in vitro 60 human tumor cell line assay; format: cell-based; details: SF 295, CNS, 48h, read-out: Total Growth Inhibition (TGI)
Experimental: as §1

[3] = test system: U 251; test: NCI in vitro 60 human tumor cell line assay; format: cell-based; details: U 251, CNS, 48h, read-out: Total Growth Inhibition (TGI)
Experimental: as §1

[4] = test system: MCF 7; test: NCI in vitro 60 human tumor cell line assay; format: cell-based; details: MCF7, MCF 7, BREAST, 48h, read-out: Total Growth Inhibition (TGI)
Experimental: as §1

[5] = test system: HT 29; test: NCI in vitro 60 human tumor cell line assay; format: cell-based
[6] = test system: EKVX; test: NCI in vitro 60 human tumor cell line assay; format: cell-based; details: NSLC, 48h, read-out: Total Growth Inhibition (TGI)
Experimental: as §1

[7] = test system: H 460; test: NCI in vitro 60 human tumor cell line assay; format: cell-based; details: H 460, NSLC, 48h
Experimental: as §1

[8] = test system: H 322M; test: NCI in vitro 60 human tumor cell line assay; format: cell-based; details: NCI-H322M, H 322M, NSLC, 48h, read-out: Total Growth Inhibition (TGI)
Experimental: as §1

[9] = test system: HCC 2998; test: NCI in vitro 60 human tumor cell line assay; format: cell-based; details: HCC 2998, COLON CANCER, 48h
Experimental: as §1

[10] = test system: HCT 15; test: NCI in vitro 60 human tumor cell line assay; format: cell-based; details: HCT 15, COLON CANCER, 48h, read-out: Total Growth Inhibition (TGI)
Experimental: as §1

[11] = test system: SK OV3; test: NCI in vitro 60 human tumor cell line assay; format: cell-based; details: SK-OV-3, SK OV3, OVARIAN, 48h, read-out: Total Growth Inhibition (TGI)
Experimental: (§2) Each test compound was screened against a battery of 60 human cell lines obtained from eight organs. In a typical procedure, the cell suspensions that were diluted according to the particular cell type and the expected target cell density (5000-40,000 cells per well based on cell growth characteristics) were added into 96-well microtiter plates. Inoculates were allowed a preincubation period of 24h at 37°C. for stabilization. Dilutions at twice the intended test concentrations were added at time zero in 100-µl aliquots to microtiter plate wells. Usually test compounds were evaluated at five 10-fold dilutions. The highest well concentration used in the test is 10^-4M. The cells are then incubated in the presence of drug (the test compound) for further 48h in 5% CO2 atmosphere and 100% humidity. At the end of this time, the adherent cells are fixed to the plate by means of trichloroacetic acid, and after a number of washes, the cell layer is treated with the protein stain Sulforhodamine B. The optical density which is proportional to protein mass, is then read by automated spectrophotometric plate readers at a wavelength of 515 nm.

[12] = test system: OVCAR 8; test: NCI in vitro 60 human tumor cell line assay; format: cell-based; details: OVCAR 8, OVARIAN, 48h, read-out: Total Growth Inhibition (TGI)
Experimental: as §2

[13] = test system: UO 31; test: NCI in vitro 60 human tumor cell line assay; format: cell-based; details: UO 31, RENAL, 48h, read-out: Total Growth Inhibition (TGI)
Experimental: as §1

[14] = test system: SF 268; test: NCI in vitro 60 human tumor cell line assay; format: cell-based; details: SF-268, 48 h, read-out: Total Growth Inhibition (TGI)
Experimental: as §2

[15] = test system: HOP 62; test: NCI in vitro 60 human tumor cell line assay; format: cell-based; details: HOP 62, NSLC, 48h, read-out: Total Growth Inhibition (TGI)
[16] = test system: HOP 92; test: NCI in vitro 60 human tumor cell line assay; format: cell-based; details: HOP 92, NSLC, 48h, read-out: Total Growth Inhibition (TGI)
[17] = test system: H 226; test: NCI in vitro 60 human tumor cell line assay; format: cell-based; details: NCI-H226, H 226, NSLC, 48h, read-out: Total Growth Inhibition (TGI)
Experimental: as §1

[18] = test system: H 23; test: NCI in vitro 60 human tumor cell line assay; format: cell-based; details: NCI-H23, H 23, NSLC, 48h, read-out: Total Growth Inhibition (TGI)
Experimental: as §1

[19] = test system: H 522; test: NCI in vitro 60 human tumor cell line assay; format: cell-based; details: NCI-H522, H 522, NSLC, 48h, read-out: Total Growth Inhibition (TGI)
Experimental: as §1

[20] = test system: COLO 205; test: NCI in vitro 60 human tumor cell line assay; format: cell-based; details: COLO 205, COLON CANCER, 48h, read-out: Total Growth Inhibition (TGI)
Experimental: as §1

[21] = test system: HCT 116; test: NCI in vitro 60 human tumor cell line assay; format: cell-based; details: HCT 116, COLON CANCER, 48h, read-out: Total Growth Inhibition (TGI)
[22] = test system: KM 12; test: NCI in vitro 60 human tumor cell line assay; format: cell-based; details: KM12, KM 12, COLON CANCER, 48h, read-out: Total Growth Inhibition (TGI)
Experimental: as §1

[23] = test system: MCF 7/ ADR; test: NCI in vitro 60 human tumor cell line assay; format: cell-based; details: MCF 7/ ADR, BREAST, 48h
Experimental: as §1

[24] = test system: MDA-MB-435; test: NCI in vitro 60 human tumor cell line assay; format: cell-based; details: MDA-MB-435, BREAST, 48h, read-out: Total Growth Inhibition (TGI)
[25] = test system: BT 549; test: NCI in vitro 60 human tumor cell line assay; format: cell-based; details: BT 549, BREAST, 48h, read-out: Total Growth Inhibition (TGI)
Experimental: as §1

[26] = test system: T 47D; test: NCI in vitro 60 human tumor cell line assay; format: cell-based; details: T47D, T 47D, BREAST, 48h, read-out: Total Growth Inhibition (TGI)
Experimental: as §1

[27] = test system: 786-O; test: NCI in vitro 60 human tumor cell line assay; format: cell-based; details: 786-0, 786-O, RENAL CANCER, 48h, read-out: Total Growth Inhibition (TGI)
Experimental: as §2

[28] = test system: A 498; test: NCI in vitro 60 human tumor cell line assay; format: cell-based; details: A498, A 498, RENAL CANCER, 48h, read-out: Total Growth Inhibition (TGI)
Experimental: as §1

[29] = test system: ACHN; test: NCI in vitro 60 human tumor cell line assay; format: cell-based; details: RENAL CANCER, 48h, read-out: Total Growth Inhibition (TGI)
Experimental: as §1

[30] = test system: CAKI; test: NCI in vitro 60 human tumor cell line assay; format: cell-based; details: CAKI, RENAL CANCER, 48h, read-out: Total Growth Inhibition (TGI)
Experimental: as §1

[31] = test system: RXF 393; test: NCI in vitro 60 human tumor cell line assay; format: cell-based; details: RXF 393, RENAL CANCER, 48h, read-out: Total Growth Inhibition (TGI)
Experimental: as §1

[32] = test system: SN12C; test: NCI in vitro 60 human tumor cell line assay; format: cell-based; details: RENAL CANCER, 48h, read-out: Total Growth Inhibition (TGI)
Experimental: as §1

[33] = NCI in vitro 60 human tumor cell line assay; format: cell-based; details: HCT 166, COLON CANCER, 48h, read-out: Total Growth Inhibition (TGI)
Experimental: as §1

[34] = test system: MCF7 / ADR / RES; test: NCI in vitro 60 human tumor cell line assay; format: cell-based; details: MCF7 / ADR / RES, BREAST CANCER, 48h, read-out: Total Growth Inhibition (TGI)
Experimental: as §1

[35] = compared with 20(RS)-camptothecin of the formula 8; cited from earlier work
[36] = biological target: topoisomerase I (Homo sapiens, UniProt P11387); details: result in words; cited from earlier work
Chain of topoisomerase I (P11387 whole entry): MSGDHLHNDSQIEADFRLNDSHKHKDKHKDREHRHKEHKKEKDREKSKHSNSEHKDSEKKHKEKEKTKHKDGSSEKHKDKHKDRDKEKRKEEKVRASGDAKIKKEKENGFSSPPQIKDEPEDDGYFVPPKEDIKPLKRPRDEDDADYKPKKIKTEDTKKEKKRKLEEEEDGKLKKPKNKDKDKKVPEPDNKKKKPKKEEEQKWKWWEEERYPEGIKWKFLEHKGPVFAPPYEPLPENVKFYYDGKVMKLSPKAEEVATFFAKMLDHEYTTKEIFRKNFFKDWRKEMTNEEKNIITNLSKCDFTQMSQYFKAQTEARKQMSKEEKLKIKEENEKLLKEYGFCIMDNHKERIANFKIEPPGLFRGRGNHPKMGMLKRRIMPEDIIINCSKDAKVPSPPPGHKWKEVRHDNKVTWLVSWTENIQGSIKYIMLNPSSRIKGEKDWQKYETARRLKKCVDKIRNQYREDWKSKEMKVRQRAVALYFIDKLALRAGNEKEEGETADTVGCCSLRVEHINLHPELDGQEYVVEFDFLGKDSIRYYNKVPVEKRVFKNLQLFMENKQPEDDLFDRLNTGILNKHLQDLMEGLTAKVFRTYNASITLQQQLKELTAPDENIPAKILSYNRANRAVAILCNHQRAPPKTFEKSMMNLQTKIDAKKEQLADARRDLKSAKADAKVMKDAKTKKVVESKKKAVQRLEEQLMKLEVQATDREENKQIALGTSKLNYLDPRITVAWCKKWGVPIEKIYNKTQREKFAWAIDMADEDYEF

CC[C@@]1(O)C(=O)OCc2c1cc1n(c2=O)Cc2cc3c(CN(C)C)c(O)ccc3nc2-1 [TOPOTECAN, topotecan, reference compound]
IC (TGI) [1]: 1200 nM
IC (TGI) [2]: 2180 nM
IC (TGI) [3]: 2810 nM
IC (TGI) [4]: 100000 nM
Total Growth Inhibition (TGI) [5]: 100 μm
IC (TGI) ([5]; Homo sapiens, HT-29, 48 h, read-out: Total Growth Inhibition (TGI)): > 100000 nM
IC (TGI) [6]: 100000 nM
Total Growth Inhibition (TGI) [7]: 1.20 μm
IC (TGI) ([7]; Homo sapiens, NCI-H460, read-out: Total Growth Inhibition (TGI)): 1200 nM
IC (TGI) [8]: 16900 nM
Total Growth Inhibition (TGI) [9]: 15.80 μm
IC (TGI) ([9]; Homo sapiens, read-out: Total Growth Inhibition (TGI)): 15800 nM
IC (TGI) [10]: 44600 nM
IC (TGI) [11]: 5120 nM
IC (TGI) [12]: 18200 nM
IC (TGI) [13]: 2510 nM
IC (TGI) [14]: 56000 nM
IC (TGI) [15]: 40 nM
IC (TGI) [16]: 7900 nM
IC (TGI) [17]: 11000 nM
IC (TGI) [18]: 870 nM
IC (TGI) [19]: 4160 nM
IC (TGI) [20]: 7940 nM
IC (TGI) [21]: 2510 nM
IC (TGI) [22]: 6450 nM
IC (TGI) ([23]; Homo sapiens, NCI/ADR-RES, read-out: Total Growth Inhibition (TGI)): 1500 nM
Total Growth Inhibition (TGI) [23]: 1.5 μm
IC (TGI) [24]: 2500 nM
IC (TGI) [25]: > 100000 nM
IC (TGI) [26]: 1800 nM
IC (TGI) [27]: 120 nM
IC (TGI) [28]: 1690 nM
IC (TGI) [29]: 280 nM
IC (TGI) [30]: 510 nM
IC (TGI) [31]: 1410 nM
IC (TGI) [32]: 1580 nM
IC (TGI) [33]: 2510 nM
IC (TGI) [34]: 1500 nM

CCc1c2c(nc3ccc(OC)cc13)-c1cc3c(c(=O)n1C2)COC(=O)[C@]3(N)CC [formula 7, 7-ethyl-10-methoxycamptothecin derivative]
in vivo antitumor activity [35]: increased in vivo antitumor activity

C=C1C(=O)OCc2c1cc1n(c2=O)Cc2c-1nc1ccc(O)cc1c2CC [formula 9, 18-noranhydrocamptothecin analogue]
inhibition of topoisomerase I activity [36]: potent camptothecin like inhibition of topoisomerase I activity
